Source: paper PMC11091889, “Silver Organometallics that are Highly Potent Thioredoxin and Glutathione Reductase Inhibitors: Exploring the Correlations of Solution Chemistry with the Strong Antibacterial Effects” (ACS Infectious Diseases, 2024)

Assays:
[1] = Conductometry: molar conductivity of silver complexes in DMSO; assay type: physicochemical; details: 1.0 mM in DMSO, calculated as monocarbene (NHC)AgX
How it was run: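 Molar conductivity of each silver complex was measured at 1.0 mM in freshly distilled DMSO (specific conductivity ≤3 × 10^–8 S cm^–1) using an Apera Instruments EC9500 conductivity meter at 25 ± 2 °C. AgNO3 served as the 1:1 electrolyte reference, and readings were taken after dissolution to distinguish neutral monocarbene from ionic biscarbene forms.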

[2] = test system: P. aeruginosa PA7 (DSM 24068); assay: microbe, parasite or virus in culture; assay type: cell-based, Pseudomonas aeruginosa; details: n = 3, MHB; for MIC P. aeruginosa / EC50: mean ± standard error; for MIC P. aeruginosa / MIC P. aeruginosa (value in brackets): 22 h; for EC50: read-out: EC50 P. aeruginosa
How it was run: (§1)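 Broth microdilution used 2–8 × 10^5 CFU/mL inocula, with compounds serially diluted 64 to 1 μg/mL and incubated 22 h at 37 °C, read at 600 nm. A. baumannii, K. pneumoniae and P. aeruginosa were grown in MHB pH 7.4; E. faecium was grown in TSY pH 7.0–7.2. MIC and EC50 were obtained by curve fitting from three independent experiments.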

[3] = test system: K. pneumoniae (DSM 11678, ATCC33495); assay: Broth microdilution antibacterial assay; assay type: cell-based, Klebsiella pneumoniae; details: n = 3, MHB; for MIC K. pneumoniae / EC50: mean ± standard error; for MIC K. pneumoniae / MIC K. pneumoniae (value in brackets): 22 h; for EC50: read-out: EC50 K. pneumoniae
How it was run: as §1

[4] = test system: A. baumannii (DSM 30007, ATCC 19606); assay: Broth microdilution antibacterial assay; assay type: cell-based, Acinetobacter baumannii; details: n = 3, MHB; for MIC A. baumannii / EC50: mean ± standard error; for MIC A. baumannii / MIC A. baumannii (value in brackets): 22 h; for EC50: read-out: EC50 A. baumannii
How it was run: as §1

[5] = test system: S. aureus MRSA (DSM 11822, ICB 25701); assay: microbe, parasite or virus in culture; assay type: cell-based, methicillin resistant S. aureus; details: n = 3, TSY; for MIC MRSA / EC50: mean ± standard error; for MIC MRSA / MIC MRSA (value in brackets): 22 h; for EC50: read-out: EC50 MRSA
How it was run: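 Broth microdilution in TSY (30 g/L trypticase soy broth, 3 g/L yeast extract, pH 7.0–7.2), inoculum 2–8 × 10^5 CFU/mL, compounds serially diluted 64 to 1 μg/mL, 22 h at 37 °C. Growth read as absorbance at 600 nm; MIC and EC50 obtained by curve fitting, three independent experiments.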

[6] = test system: E. faecium (DSM 20477, ATCC 19434); assay: Broth microdilution antibacterial assay; assay type: cell-based, Enterococcus faecium; details: n = 3, TSY; for MIC E. faecium / EC50: mean ± standard error; for MIC E. faecium / MIC E. faecium (value in brackets): 22 h; for EC50: read-out: EC50 E. faecium
How it was run: as §1

[7] = molecular target: E. coli thioredoxin reductase (TrxR) (Escherichia coli, UniProt P0A9P4); details: read-out: IC50 TrxR from E. coli; ± standard deviation, n = 3, 75 min preincubation
Chain of E. coli thioredoxin reductase (TrxR) (P0A9P4 whole entry): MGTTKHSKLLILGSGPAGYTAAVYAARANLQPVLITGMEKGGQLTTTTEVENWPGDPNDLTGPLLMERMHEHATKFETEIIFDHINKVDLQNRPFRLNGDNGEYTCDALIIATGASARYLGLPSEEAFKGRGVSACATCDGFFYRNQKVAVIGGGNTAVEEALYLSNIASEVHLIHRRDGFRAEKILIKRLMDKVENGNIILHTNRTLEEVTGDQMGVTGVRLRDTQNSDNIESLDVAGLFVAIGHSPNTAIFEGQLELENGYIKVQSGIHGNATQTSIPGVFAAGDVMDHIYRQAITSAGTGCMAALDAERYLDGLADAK
Method: The inhibition of purified E. coli thioredoxin reductase (TrxR) and glutathione reductase (GR) from both E. coli and baker’s yeast was determined according to a previously applied procedure.[59],[60]
The TrxR (E. coli) and GR (baker’s yeast and E. coli) inhibition assays were performed according to previously published procedures.[62],[75] The assays are partly based on the procedure developed by Lu et al.[60] and make use of the reduction of 5,5′-dithiobis(2-nitrobenzoic acid) (DTNB). Solutions of E. coli TrxR (35.4 U/mL) and E. coli thioredoxin (Trx) (156 μg/mL) (both purchased from Sigma-Aldrich) or baker’s yeast GR (0,08 U/mL, Sigma-Aldrich) or E. coli GR (4.2 U/ml, Antibodies online) and GSSG (0.28 mM, Sigma-Aldrich) in distilled water were prepared, as were fresh 2 mM stock solutions of the test compounds in DMSO. Then, solutions with several concentrations of the test compounds in DMSO were prepared, and 35 μL of each solution was diluted with 965 μL of TE buffer (Tris–HCl 50 mM, EDTA 1 mM, pH 7.5). These solutions (20 μL) or TE buffer without the test compounds (20 μL, as control) were mixed with the TrxR or GR solutions (10 μL), the Trx or GSSG solutions (10 μL), and a solution of NADPH (200 μM) in TE buffer (100 μL) in a well on a 96-well plate. As a blank solution, 200 μM NADPH in TE buffer (100 μL) mixed with a DMSO/buffer mixture (40 μL) was used (final concentrations of DMSO: 0.5% v/v). The plate was incubated for 75 min at 25 °C with moderate shaking. After incubation, 100 μL of a reaction mixture (TE buffer containing 200 μM NADPH and 5 mM DTNB) was added to each well to initiate the reaction. After thorough mixing, the formation of 5-TNB was monitored by a microplate reader at 405 nm in 35 s intervals (10 measurements). The values were corrected by subtraction of the blank solution absorption values. The increase in the concentration of 5-TNB followed a linear trend (r^2 ≥ 0.990), and the enzymatic activities were calculated as the gradients (increase in absorbance per second) thereof. […] The inhibition is presented as the mean IC50 values and standard deviations obtained in three independent experiments.

Row | SMILES | Molar conductivity ΛM ([1]; 1 h after dissolution) [S cm^2 mol^–^1] | Molar conductivity ΛM ([1]; 24 h after dissolution) [S cm^2 mol^–^1] | MIC P. aeruginosa [2] [µM] | EC50 [2] [µM] | MIC P. aeruginosa (value in brackets) [2] [mg/L] | MIC K. pneumoniae [3] [µM] | EC50 [3] [µM] | MIC K. pneumoniae (value in brackets) [3] [mg/L] | MIC A. baumannii [4] [µM] | EC50 [4] [µM] | MIC A. baumannii (value in brackets) [4] [mg/L] | MIC MRSA [5] [µM] | EC50 [5] [µM] | MIC MRSA (value in brackets) [5] [mg/L] | MIC E. faecium [6] [µM] | EC50 [6] [µM] | MIC E. faecium (value in brackets) [6] [mg/L] | IC50 [7] [µM]
1 | CC(C)n1[c](=[Ag][Br])n(Cc2ccccn2)c2ccccc21 [3b, Bromido (1-Isopropyl-3-(pyridin-2-ylmethyl)-benzimidazol-2-ylidene) Silver(I)] | 5.25 | 4.71 | 60.7 ± 12.1 | 30 ± 6.9 | 26 | 18.2 ± 0.0 | 8.6 ± 0.2 | 8 | 15.2 ± 3.0 | 0.53 ± 0.14 | 7 | 146 ± 0.0 | 78.8 ± 0.4 | 64 | 146 ± 0.0 | 123 ± 0.4 | 64 | 0.092 ± 0.008
2 | CC(C)n1[c](=[Ag][Cl])n(Cc2ccccn2)c2ccccc21 [3a, Chlorido (1-Isopropyl-3-(pyridin-2-ylmethyl)-benzimidazol-2-ylidene) Silver(I)] | 3.34 | 2.91 | 81.1 ± 0.0 | 39.1 ± 8.8 | 32 | 13.5 ± 3.4 | 9.8 ± 2.4 | 5 | 13.5 ± 3.4 | 1.8 ± 0.3 | 5 | 162 ± 0.0 | 88.6 ± 1.6 | 64 | 162 ± 0.0 | 139 ± 0.4 | 64 | 0.103 ± 0.008
3 | COCCn1[c](=[Ag][I])n(Cc2ccccn2)c2ccccc21 [4c, Iodido (1-(2-Methoxyethyl)-3-(pyridin-2-ylmethyl)-benzimidazol-2-ylidene) Silver(I)] | 7.18 | 8.83 | 18.6 ± 7.0 | 4.9 ± 1.2 | 9 | 4.0 ± 0.0 | 2 | 2 | 9.3 ± 3.5 | 1.9 ± 0.1 | 5 | > 128 | > 128 | > 64 | > 128 | > 128 | > 64 | 
4 | CC(C)n1[c](=[Ag][I])n(Cc2ccccn2)c2ccccc21 [3c, Iodido (1-Isopropyl-3-(pyridin-2-ylmethyl)-benzimidazol-2-ylidene) Silver(I)] | 8.15 | 7.62 | 11.0 ± 2.7 | 6 ± 1 | 5 | 4.11 ± 0.0 | 2.3 ± 0.3 | 2 | 4.11 ± 0.0 | 1.9 ± 0.1 | 2 | > 132 | > 132 | > 64 | 65.8 ± 0.0 | 60.9 ± 0.1 | 32 | 0.122 ± 0.015
